The IC50 is the concentration that gives 50% inhibition.

The text below walks through data of paper PMC9501014, “Amaryllidaceae-Type Alkaloids from Pancratium maritimum: Apoptosis-Inducing Effect and Cell Cycle Arrest on Triple-Negative Breast Cancer Cells” (Molecules, 2022).

For experiment [1], the system named is HFF-1 cells. The experiment is described as follows: Sulforhodamine B antiproliferative assay, non-tumorigenic fibroblast HFF-1. The class given is cell-based. The following applies: Homo sapiens, 48 h of treatment, read-out: IC50 HFF-1 (E). On the procedure:
The antiproliferative effect of the isolated compounds (1–11) was investigated by the sulforhodamine B assay against human triple-negative breast cancer cell lines (MDA-MB-468 and MDA-MB-231) and breast ductal carcinoma cells (MCF-7) and the non-tumorigenic fibroblast (HFF-1) and breast cell lines (MCF12A). The IC50 values were determined after 48 h of treatment (Table 1).
Human breast adenocarcinoma MDA-MB-231, MDA-MB-468, and MCF-7 cell lines and non-tumorigenic foreskin fibroblast (HFF-1) and breast (MCF12A) cell lines were purchased from American Type Culture Collection (ATCC, Rockville, MD, USA). All cancer cell lines, except MCF12A, were routinely cultured in RPMI-1640 medium with glutamine from Corning (VWR, Carnaxide, Portugal) supplemented with 10% fetal bovine serum (FBS) from Biowest (Labclinics, Barcelona, Spain). MCF12A cells were cultured in a 1:1 mixture of Dulbecco’s modified Eagle’s medium and Ham’s F12 medium, 20 ng/mL human epidermal growth factor, 100 ng/mL cholera toxin, 0.01 mg/mL bovine insulin, and 500 ng/mL hydrocortisone and supplemented with 10% FBS. All cells were maintained in a humidified incubator at 37 °C with 5% CO2. All cells were routinely tested for mycoplasma contamination using the MycoAlertTM PLUS detection kit (Lonza, Basel, Switzerland).
Human cell lines were seeded in 96-well plates at a density of 5.0 × 10^3 (MDA-MB-231, MCF-7, HFF-1, and MCF12A) and 7.5 × 10^3 (MDA-MB-468) cells/well and allowed to adhere for 24 h. Cells were treated with serial dilutions of compounds (ranging from 0.1 to 40 μM) for an additional 48 h. Effect on cell proliferation was measured by sulforhodamine B assay, as described in [33], and the half-maximal inhibitory concentration (IC50) was then determined for each cell line using the GraphPad Prism software version 7.0 (La Jolla, CA, USA).
Background: The SRB assay estimates cell density from bound dye.

Experiment [2] concerns HFF-1 cells. The experiment is described as follows: Combination therapy with etoposide (SRB, CompuSyn), HFF-1. The experiment is classed as cell-based, human. Conditions: for Combination Index HFF-1: 48 h. On the procedure: The effect of 1.5 μM of compound 7 in combination with a range of concentrations of etoposide was evaluated after 48 h of treatment using CompuSyn software to calculate the combination index (CI) values for each combined treatment: CI < 1, synergy; 1 < CI < 1.1, additive effect; CI > 1.1, antagonism.
The effect of combined treatments on cell proliferation was analyzed by SRB assay. For each combination, the combination index (CI) values were calculated using the CompuSyn Software version 1.0; CI values < 1, 1 < CI < 1.1, and >1.1 indicate synergistic, additive, and antagonistic effects, respectively.

As to `COc1cc2c(cc1O)C(=O)OC1[C@@H](O)C=C3CCN(C)C3[C@]21O` (stereo partly drawn) [Compound 7, 2α-10bα-dihydroxy-9-O-demethylhomolycorine], the IC50 in experiment [1] is 13.3 ± 3.28 µM. For the same molecule, the “Combination Index HFF-1” value in experiment [2] (1.5 µM compound 7 + etoposide 0.4 µM) turned out to be 1.19; in experiment [2] (1.5 µM compound 7 + etoposide 0.8 µM), 1.34; in experiment [2] (1.5 µM compound 7 + etoposide 1.5 µM), 1.12; in experiment [2] (1.5 µM compound 7 + etoposide 3 µM) it was 1.09. In experiment [2] (same experimental conditions as in MDA-MB-231 cells), the “type of interaction with etoposide, HFF-1” value is listed as “no synergistic effects”.
